Results on 23 compounds are retold here after PubChem BioAssay (NCI).

Values joined by “and” are separate entries in the source; they are usually repeats but may differ in a detail not shown here. Equal entries are not always repeated.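 Briefly, cells in 96-well plates were exposed to five compound concentrations for 48 h, and endpoints were estimated by linear interpolation. GI50 marks 50% less growth. The concentration for full growth arrest is given as TGI.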

Test systems include DLD-1 colon; DMS 273 small cell lung; LXFL 529 NSCLC; SNB-78 CNS; XF 498 CNS; HS 578T breast; MCF7 breast; MDA-MB-435; PC-3 prostate; T-47D breast.
Assay in all cases: DTP human tumour cell line panel, 48 h

Take `COc1ccccc1NC(=O)C(CC(C(=O)Nc1ccccc1OC)/C(C)=N/Nc1ccc([N+](=O)[O-])cc1[N+](=O)[O-])/C(C)=N/Nc1ccc([N+](=O)[O-])cc1[N+](=O)[O-]` (configuration not stated): the TGI with DLD-1 colon, in the test on DMS 273 small cell lung, with LXFL 529 NSCLC, with SNB-78 CNS and in the test on XF 498 CNS was more than 100 µM each time.

Consider `COc1ccc(C2CCc3cc4c(cc3/C2=N/OC(C)=O)OCO4)cc1OC` (configuration not stated), for which the TGI – broadly, the concentration at which net growth stops – was 78.1 µM in the test with DMS 273 small cell lung, more than 100 µM in the test on LXFL 529 NSCLC, more than 100 µM in the test with SNB-78 CNS and 57.5 µM in the test on XF 498 CNS.

For `CCOC(=O)[C@H]1Nc2ccccc2C2c3ccccc3CC21` (some centres not stated), the TGI in the test on DLD-1 colon, with DMS 273 small cell lung, in the test on LXFL 529 NSCLC, in the test on SNB-78 CNS and with XF 498 CNS was more than 100 µM throughout.

`CCCCCCCCCCCCOP(N)(=O)OCCCCCCCCCCCC`: the TGI in the test on DLD-1 colon, in the test on DMS 273 small cell lung, in the test with LXFL 529 NSCLC and in the test on SNB-78 CNS was more than 100 µM in each case.

For the compound `Nc1ccc(S(=O)(=O)Nc2cnc3c(Cl)cccc3n2)cc1`, the TGI in the test on DLD-1 colon is more than 655 µM; in the test on DMS 273 small cell lung, 467 µM; with HS 578T breast, > 79.5 µM and 504 µM; with MCF7 breast, more than 721 µM; in the test with MDA-MB-435 it was more than 750 µM; in the test on PC-3 prostate, more than 750 µM. In addition, the TGI with SNB-78 CNS is 528 µM; with T-47D breast, more than 750 µM; in the test on XF 498 CNS it was 719 µM. In addition, the GI50 (in general, the concentration giving 50% growth inhibition) in the test on HS 578T breast is 16.3 µM; in the test with MCF7 breast, 45.3 µM; in the test with MDA-MB-435, 31.5 µM; with PC-3 prostate, more than 63.9 µM; in the test with T-47D breast, 48.2 µM.

With `Cc1c(C(=O)CSc2nc3ccccc3[nH]2)c(=O)n(-c2ccccc2)n1C`, the TGI with DLD-1 colon, in the test on DMS 273 small cell lung, in the test with LXFL 529 NSCLC, in the test with SNB-78 CNS and in the test with XF 498 CNS was more than 100 µM in each case.

Compound `CCC1CNC(=O)CC1CC(=O)OC` (configuration not stated) gave a TGI in the test with SNB-78 CNS of more than 100 µM.

Consider `CCOC(=O)C(NC(=O)c1[nH]cnc1/N=N/N(C)C)C(C)C` (configuration not stated), for which the TGI in the test with DLD-1 colon, in the test on DMS 273 small cell lung and in the test on LXFL 529 NSCLC was more than 100 µM in each case.

With `CCCCCCCCCCCCCc1nn[nH]n1`, the TGI in the test on DLD-1 colon was found to be 31.8 µM; with LXFL 529 NSCLC, 31.2 µM; in the test on SNB-78 CNS, 43.6 µM.

Consider `CNC(=O)CN(CC(N)=O)C(N)=O`, for which the TGI with DLD-1 colon, in the test on DMS 273 small cell lung, with LXFL 529 NSCLC, in the test on SNB-78 CNS and with XF 498 CNS was more than 100 µM in each case.

As for `Cc1ccc(NC(=O)CC(=O)N2N=C(N(CCC#N)c3cccc(C)c3)CC2c2ccccc2)cc1` (configuration not stated), the TGI in the test on DLD-1 colon, with DMS 273 small cell lung, in the test on LXFL 529 NSCLC and in the test with SNB-78 CNS was more than 100 µM in each case.

Turning to `COC(=O)/C(=N\NC(N)=S)C(C#N)c1ccccc1` (configuration not stated), the concentration for total growth inhibition (TGI) in the test on DLD-1 colon, in the test on LXFL 529 NSCLC, in the test on SNB-78 CNS and in the test with XF 498 CNS was more than 100 µM in each case.

Regarding `COc1cc2c(c(OC)c1OC)-c1ccc(SC)c(=O)cc1[C@@H](NC(=O)c1ccc(Cl)cc1)CC2`, the TGI was more than 100 µM with DLD-1 colon, more than 100 µM in the test with DMS 273 small cell lung and 0.169 µM in the test with LXFL 529 NSCLC.

For the compound `CN(C=O)/C=C/c1cc(O)ccc1O`, the TGI in the test with DLD-1 colon was 39.4 µM; in the test on DMS 273 small cell lung, more than 54.3 µM; with LXFL 529 NSCLC, 33.6 µM; in the test on SNB-78 CNS, 56.2 µM.

Turning to `COc1ccc(OC)c2c3c(ccc12)C(c1ccccc1)OC3=O` (configuration not stated), the TGI in the test with DLD-1 colon was more than 100 µM; in the test with DMS 273 small cell lung, more than 100 µM; in the test on LXFL 529 NSCLC it was more than 100 µM; in the test with SNB-78 CNS it was 64.9 µM.

Take `N[C@@H]1CCCC[C@@H]1N.O=P([O-])([O-])CN(CP(=O)([O-])[O-])CP(=O)([O-])[O-].[Pt+2]`: the GI50 in the test with DLD-1 colon, in the test on DMS 273 small cell lung, in the test on LXFL 529 NSCLC, in the test on SNB-78 CNS and in the test with XF 498 CNS was more than 100 µM throughout. Besides, the TGI with DLD-1 colon, in the test on DMS 273 small cell lung, with LXFL 529 NSCLC, in the test on SNB-78 CNS and in the test on XF 498 CNS was more than 100 µM throughout.

As for `C[N+](C)(C)CC1CCCC(C[N+](C)(C)C)C1O` (configuration not stated), the TGI in the test on DLD-1 colon, in the test on DMS 273 small cell lung, with LXFL 529 NSCLC and in the test on SNB-78 CNS was more than 100 µM in each case.

Consider `COC(=O)/C(=N/NC(N)=O)C(C(=O)OC)C(=O)C(=O)Nc1ccc(Cl)cc1` (configuration not stated), for which the TGI with DLD-1 colon, with DMS 273 small cell lung, in the test with LXFL 529 NSCLC and in the test with XF 498 CNS was more than 100 µM in each case.

Regarding `FC1OC2OC1C(OCc1ccccc1)C(OCc1ccccc1)C2OCc1ccccc1` (configuration not stated), the TGI with DLD-1 colon, with DMS 273 small cell lung, with LXFL 529 NSCLC, with SNB-78 CNS and in the test with XF 498 CNS was more than 100 µM throughout.

Consider `COc1ccc(CCN=C2CCC(C(=O)NCCc3ccc(OC)c(OC)c3)N2)cc1OC` (configuration not stated), for which the TGI in the test with DLD-1 colon, with DMS 273 small cell lung, with LXFL 529 NSCLC, in the test with SNB-78 CNS and with XF 498 CNS was more than 100 µM each time.

Regarding `COc1nc(NC2OC(COC(C)=O)C(OC(C)=O)C(OC(C)=O)C2OC(C)=O)c(-c2csc(N)n2)c(=O)n1C` (configuration not stated), the TGI in the test with DLD-1 colon, with LXFL 529 NSCLC and with SNB-78 CNS was more than 100 µM throughout.

As to `O=C(Nc1cccc(NC(=O)c2cc(=O)c3ccccc3o2)n1)c1cc(=O)c2ccccc2o1`, the TGI in the test with DLD-1 colon is more than 100 µM; in the test on DMS 273 small cell lung, 57.8 µM; in the test with LXFL 529 NSCLC, more than 100 µM; in the test with SNB-78 CNS, more than 100 µM.

For the compound `O=C(c1ccc(Cl)cc1)C1OC12C(=O)Nc1ccccc12` (configuration not stated), the TGI is 6.29 µM in the test on DLD-1 colon; 25.4 µM in the test on DMS 273 small cell lung; 44.6 µM with HS 578T breast; 11.8 µM in the test with LXFL 529 NSCLC; 35.5 µM in the test on MDA-MB-435; 41 µM with PC-3 prostate. For the same compound, the figures for the TGI in the test on SNB-78 CNS, with T-47D breast and in the test with XF 498 CNS were 32.4 µM, 47.7 µM and 25 µM, respectively.
